Read-outs that look alike come from different tables or passages of the source.
Experiments:
[1] = Pharmacokinetics dose response of non-deuterated D-serine, 30-300 mg/kg PO (Example 4); assay type: in vivo, male Sprague-Dawley rats; details: plasma; for Cmax / AUC(0-inf): (CV %)
Excerpt: (§1) The pharmacokinetic profile of non-deuterated D-serine was investigated in male Sprague-Dawley rats. […] Plasma was collected and analyzed for the non-deuterated D-serine. Additional blood was collected and analyzed for the full clinical chemistry profile.

Male Sprague-Dawley Rats [2] = assay: Nephrotoxicity of Compound 100 and non-deuterated D-serine at 150 mg/kg PO (Example 3); assay type: in vivo
Excerpt: (§2) The pharmacokinetic profile of Compound 100 was investigated in male Sprague-Dawley rats compared with that of non-deuterated D-serine. […] Plasma was collected and analyzed for Compound 100 and non-deuterated D-Serine. Additional blood was collected and analyzed for the full clinical chemistry profile.

[3] = biological target: T1, human NMDAR subunits GluN1 and GluN2A (Homo sapiens, UniProt Q05586); assay: NMDA receptor activation in automated patch clamp system (ScreenPatch); assay type: cell-based; details: HEK293 cells, 0.003 to 10 μM, Compound 100 versus d-serine
T1 construct: expressed in transfected cells; host or cells: HEK293
Procedure: Peak current and steady state current were measured. The activity at the NMDA receptor was indistinguishable for the two compounds.

Male Sprague-Dawley Rats [4] = assay: Nephrotoxicity dose response of non-deuterated D-serine, 30-300 mg/kg PO (Example 4); assay type: in vivo; details: 24 hr samples at the 150 and 300 mg/kg doses, compared to control and reference values
Excerpt: as §1

[5] = Pharmacokinetics of non-deuterated D-serine after a 300 mg/kg PO dose (Example 2); assay type: in vivo, Male Sprague-Dawley Rats; details: male, Sprague-Dawley, rat; for concentration at 1 h: oral, 300 mg/kg, 1 hour (in Example 2); for concentration at 1 h / concentration at 8 h: mean
Procedure: (§3) The hippocampus, cortex and plasma were collected and analyzed. Additional blood was collected and were analyzed for the full clinical chemistry profile. Urine was also collected and examined for glucose and total protein. […] The mean plasma, hippocampus, and cortex concentration at 1 hour are 19200 ng/mL, 674 ng/g, and 754 ng/g; respectively. The mean plasma, hippocampus, and cortex concentrations at 8 hours were 11250 ng/mL, 17725 ng/g, and 11875 ng/g, respectively. […] Blood urea nitrogen and creatinine levels were elevated.

rats = assay: Nephrotoxicity comparison at doses from 150 mg/kg to 750 mg/kg (dose escalation, FIGS. 7-10); assay type: in vivo; details: for changes in BUN or creatinine: PO doses from 150 mg/kg to 750 mg/kg
[6] = Pharmacokinetics of deuterated and non-deuterated D-serine, PO 10 mg/kg (Example 5); assay type: in vivo, male Sprague Dawley rats; details: male, Sprague Dawley, rat, plasma, 0.5% Methylcellulose
Procedure: Three rats were used for each group. Blood was collected at the following time points: for IV dosing: pre-dose, 0.05, 0.167, 0.5, 1, 2, 4, 6, 8 and 12 hours post-dose; for PO dosing: pre-dose, 0.25, 0.5, 1, 2, 4, 6, 8 and 12 hours post-dose PO. Urine was collected at pre-dose (minimum 12 hours), 0-6, 6-12 and 12-24 hours. Plasma samples were analyzed and quantified for dosed compound LC-MS/MS.

[7] = Pharmacokinetic profile of Compound 100 and non-deuterated D-serine after 150 mg/kg PO doses (Example 3); assay type: in vivo, male Sprague-Dawley rats; details: for AUC(0-inf) / Cmax / Tmax / concentration at 4 h / concentration at 8 h / concentration at 24 h: male, Sprague-Dawley, rat; for concentration at 4 h / concentration at 8 h / concentration at 24 h: po
Excerpt: as §2

Male Sprague-Dawley Rats [8] = assay: Nephrotoxicity of non-deuterated D-serine at 300 mg/kg PO (Example 2); assay type: in vivo
Procedure: as §3

[9] = Brain distribution of Compound 100 after a single 100 mg/kg PO dose (Example 10); assay type: in vivo, male Sprague-Dawley rats; details: male, Sprague-Dawley, rat, mean
Procedure: The distribution profile of Compound 100 was investigated in male Sprague-Dawley rats. […] At 24 hours after dosing, tissues from perfused brain and plasma were collected and analyzed by LC-MS.

[10] = Cortex versus plasma half-life of Compound 100 after 4 days of 100 mg/kg PO dosing (Example 11); assay type: in vivo, male Sprague-Dawley rats; details: male, Sprague-Dawley, rat, 100 mg/kg PO once per day for 4 days
Procedure: After 4 days, tissues from perfused brain and plasma were collected and analyzed by LC-MS at 24 hours (group 1), 72 hours (group 2) and 120 hours (group 3) after dosing.

[11] = Plasma, hippocampus and cortex concentration of Compound 100 after a 30 mg/kg PO dose (Example 1); assay type: in vivo, male Sprague Dawley rats; details: male, Sprague-Dawley, rat, mean
Procedure: The mean plasma, hippocampus, and cortex concentrations at 1 hour were 19200 ng/mL, 674 ng/g, and 754 ng/g, respectively. The mean plasma, hippocampus, and cortex concentrations at 6 hours were 1780 ng/mL, 1385 ng/g, and 936 ng/g, respectively.

[12] = serum, D-serine at 24 hr, Compound 100 at 4, 8, and 24 hours
[13] = cortex, read-out: Cortex concentration
[14] = hippocampus, read-out: Hippocampus concentration
[15] = plasma, read-out: Plasma concentration
[16] = dose escalation 150 mg/kg to 750 mg/kg
[17] = cortex, 150 mg/kg, mean, read-out: Cortex concentration
[18] = hippocampus, 150 mg/kg, mean, read-out: Hippocampus concentration
[19] = plasma, 150 mg/kg, mean, read-out: Plasma concentration

N[C@H](CO)C(=O)O [Non-deuterated D-Serine, D-serine] gave a Tmax ([1]; male, Sprague-Dawley, rat, po, 30 mg/kg, 30 mg/kg PO) of 30 min, a Cmax ([1]; male, Sprague-Dawley, rat, po, 30 mg/kg, 30 mg/kg PO, read-out: Cmax) of 24300 ng/mL and a Tmax ([1]; male, Sprague-Dawley, rat, po, 75 mg/kg, 75 mg/kg PO) of 30 min. It also gave a Cmax ([1]; male, Sprague-Dawley, rat, po, 75 mg/kg, 75 mg/kg PO, read-out: Cmax) of 54300 ng/mL, a Tmax ([1]; male, Sprague-Dawley, rat, po, 100 mg/kg, 100 mg/kg PO) of 30 min and a Cmax ([1]; male, Sprague-Dawley, rat, po, 100 mg/kg, 100 mg/kg PO, read-out: Cmax) of 96100 ng/mL. For the same compound, the Tmax ([1]; male, Sprague-Dawley, rat, po, 150 mg/kg, 150 mg/kg PO) was 18 min, the Cmax ([1]; male, Sprague-Dawley, rat, po, 150 mg/kg, 150 mg/kg PO, read-out: Cmax) was 180000 ng/mL and the Tmax ([1]; male, Sprague-Dawley, rat, po, 300 mg/kg, 300 mg/kg PO) was 30 min. It also gave a Cmax ([1]; male, Sprague-Dawley, rat, po, 300 mg/kg, 300 mg/kg PO, read-out: Cmax) of 216000 ng/mL, a Tmax ([1]; male, Sprague-Dawley, rat, po, 300 mg/kg, all doses 30, 75, 100, 150, and 300 mg/kg PO) of 18 to 30 min and an AUC(0-inf) ([1]; male, Sprague-Dawley, rat, 30 mg/kg PO) of 50.6 µg·h/mL. The AUC(0-inf) ([1]; male, Sprague-Dawley, rat, 75 mg/kg PO) was 148 µg·h/mL, the AUC(0-inf) ([1]; male, Sprague-Dawley, rat, 100 mg/kg PO) was 246 µg·h/mL and the AUC(0-inf) ([1]; male, Sprague-Dawley, rat, 150 mg/kg PO) was 349 µg·h/mL. For the same compound, the AUC(0-inf) ([1]; male, Sprague-Dawley, rat, 300 mg/kg PO) was 911 µg·h/mL, the Cmax ([1]; 300 mg/kg PO, 300 mg/kg) was 261000 (32.3%) ng/mL and the “levels of biomarkers of nephrotoxicity” value (Male Sprague-Dawley Rats [2]) was “caused an increase”. The “blood urea nitrogen (BUN) level” value (Male Sprague-Dawley Rats [2]; serum, D-serine at 8 hr and 24 hr, Compound 100 at 4, 8, and 24 hours) was “Elevated levels”, the creatinine level (Male Sprague-Dawley Rats [2]; [12]) was “Elevated levels” and the “gamma glutamyl transferase (GGT) level” value (Male Sprague-Dawley Rats [2]; [12]) was “Elevated levels”. The “activity at the NMDA receptor (peak current and steady state current)” value [3] was “indistinguishable”, the creatine level (Male Sprague-Dawley Rats [4]) was “Elevated levels” and the “gamma glutamyl transferase (GGT) level” value (Male Sprague-Dawley Rats [4]) was “Elevated levels”. For the same compound, the urea nitrogen level (Male Sprague-Dawley Rats [4]) was “Elevated levels”, the concentration at 1 h [5, 13] was 754 ng/g and the concentration at 8 h ([5]; cortex, 300 mg/kg PO, read-out: Cortex concentration) was 11900 ng/g. The concentration at 1 h [5, 14] was 674 ng/g, the concentration at 8 h ([5]; hippocampus, 300 mg/kg PO, read-out: Hippocampus concentration) was 17700 ng/g and the concentration at 1 h [5, 15] was 19200 ng/mL. It also gave a concentration at 8 h ([5]; plasma, 300 mg/kg PO, endogenous level subtracted, read-out: Plasma concentration) of 11200 ng/mL, an AUC(0-inf) ([5]; plasma, 300 mg/kg PO) of 500 µg·h/mL and a Cmax ([5]; plasma, 300 mg/kg PO) of 268000 ng/mL. The Tmax ([5]; plasma, 300 mg/kg PO) was 30 min, the half-life ([5]; plasma, 300 mg/kg PO) was 218 min and the “changes in BUN or creatinine” value (rats) was “increasingly elevated levels”. The “gross signs of nephrotoxicity” value (rats; [16]) was “observed”, the AUC(0-inf) [6] was 13.2 µg·h/mL and the Cmax [6] was 8780 ng/mL. For the same compound, the Tmax [6] was 25 min, the half-life [6] was 106 min and the AUC(0-inf) ([7]; plasma) was 349 µg·h/mL. The Cmax ([7]; plasma) was 180000 ng/mL, the Tmax ([7]; plasma) was 20 min and the “Blood urea nitrogen level” value (Male Sprague-Dawley Rats [8]) was “elevated”. The creatinine level (Male Sprague-Dawley Rats [8]) was “elevated” and the glucose in urine (Male Sprague-Dawley Rats [8]) was “presence of glucose was observed”.
Work on [2H][C@@](N)(CO)C(=O)O [Compound 100, (2R)-2-amino-2-deutero-3-hydroxy-propanoic acid] yielded a concentration at 24 h ([9]; brain stem, perfused brain, read-out: brain stem concentration) of 721 ng/g, a concentration at 24 h ([9]; cerebellum, perfused brain, read-out: cerebellum concentration) of 290 ng/g and a concentration at 24 h ([9]; cortex, perfused brain, read-out: cortex concentration) of 4660 ng/g. The concentration at 24 h ([9]; plasma, read-out: plasma concentration) was 880 ng/mL, the half-life ([10]; cortex, read-out: half-life (T1/2) in the cortex (converted)) was roughly 48 h and the half-life ([10]; plasma, read-out: plasma T1/2) was less than 12 h. For the same compound, the “levels of biomarkers of nephrotoxicity” value (Male Sprague-Dawley Rats [2]) was “did not increase”, the “activity at the NMDA receptor (peak current and steady state current)” value [3] was “indistinguishable” and the concentration at 1 h [11, 13] was 754 ng/g. For the same compound, the concentration at 6 h [11, 13] was 936 ng/g, the concentration at 1 h [11, 14] was 674 ng/g and the concentration at 6 h [11, 14] was 1380 ng/g. For the same compound, the concentration at 1 h [11, 15] was 19200 ng/mL, the concentration at 6 h [11, 15] was 1780 ng/mL and the “changes in BUN or creatinine” value (rats) was “minimal changes”. For the same compound, the “exposure as measured by AUC and Cmax, versus non-deuterated D-serine” value (rats; [16]) was “greater”, the “gross signs of nephrotoxicity” value (rats; [16]) was “not” and the AUC(0-inf) [6] was 21.5 µg·h/mL. The Cmax [6] was 11400 ng/mL, the Tmax [6] was 25 min and the half-life [6] was 160 min. It also gave a concentration at 4 h [7, 17] of 5070 ng/g, a concentration at 8 h [7, 17] of 4040 ng/g and a concentration at 24 h ([7]; cortex, 150 mg/kg, mean, 24 hr, read-out: Cortex concentration) of 2420 ng/g. The concentration at 4 h [7, 18] was 6160 ng/g, the concentration at 8 h [7, 18] was 4340 ng/g and the concentration at 24 h ([7]; hippocampus, 150 mg/kg, mean, 24 hr, read-out: Hippocampus concentration) was 4200 ng/g. The AUC(0-inf) ([7]; plasma) was 383 µg·h/mL, the Cmax ([7]; plasma) was 186000 ng/mL and the Tmax ([7]; plasma) was 40 min. It also gave a concentration at 4 h [7, 19] of 23300 ng/mL, a concentration at 8 h [7, 19] of 2040 ng/mL and a concentration at 24 h ([7]; plasma, 150 mg/kg, mean, 24 hr, read-out: Plasma concentration) of 711 ng/mL. It also gave a Hippocampus concentration ([7]; mean, 24 hr, 150 mg/kg) of 4220 ng/g.

Reference: patent US20200368193A1 (Concert Pharmaceuticals, Inc., priority 2017, published 2020)
